Assay results published in PubChem BioAssay AID504313 (Emory University Molecular Libraries Screening Center, 2011).
pIC50: −log10 of the molar value. Calls of active or inactive are those of the source. The rule behind the calls is not given here.

What follows are compounds tested against X-box-binding protein 1 (Homo sapiens) (UniProt P17861) (assay: XBP1 reporter suppression in cells – counter-screen, dose response (AID 504313;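 note: CHO cells carrying an XBP1 reporter stimulated with tunicamycin; potency is for inhibition of the tunicamycin-induced reporter signal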)). Conditions: XBP1 reporter cell assay, percent of control.
`CCn1cc([N+](=O)[O-])c(C(=O)N2N=C(c3ccc(Cl)c(Cl)c3)CC2c2ccccc2O)n1` (stereo not drawn) was tested, and the IC50 was > 10 µM (inactive).
`C=C(C)COc1ccc(-c2[nH]ncc2Oc2ccccc2OCC)c(O)c1` was tested, and the IC50 was “inactive”.
For `C/C=C/Cn1c(SCCCc2ccccc2)nc2c1c(=O)[nH]c(=O)n2C`, the IC50 was > 10 µM (inactive).
For `CS(=O)(=O)c1nc(-c2cccs2)cc(C(F)(F)F)n1`, the IC50 was “inactive”.
`Cc1ccc(/C=C2\SC(=S)N(CCCC(=O)Nc3ccc(O)cc3)C2=O)cc1` showed a pIC50 greater than 6.80.
For `CCn1c(C)nc2cc(-c3nc4n(n3)Cc3ccccc3-4)ccc21`, the IC50 was < 0.16 µM (inactive).
In the case of `Cc1cc(C(=O)CCl)c(C)n1-c1cccc(S(=O)(=O)N2CCOCC2)c1`, the IC50 was > 10 µM (inactive).
With `Fc1cccc(-c2nnn3c2nc(Cl)c2ccccc23)c1` the IC50 was “inactive”.
For `CSc1nc2c(cnn2-c2ccc(C)c(C)c2)c(=O)[nH]1`, the IC50 was > 10 µM (inactive).
With `CCc1ccc2c(c1)C(c1ccc([N+](=O)[O-])cc1)=NNC(c1ccc(C)cc1)=N2` the IC50 was > 10 µM (inactive).
With `Cc1nc(SCC(=O)Nc2ccc(C)c(F)c2)c2oc3ccccc3c2n1` the IC50 was > 10 µM (inactive).
In the case of `CC(C)(C)c1ccc(-c2n[nH]c(=S)n2C2CCCC2)cc1`, the IC50 was > 10 µM (inactive).
With `O=C(Cc1ccccc1)NC(=S)Nc1cccc(C(F)(F)F)c1` the IC50 was “inactive”.
With `Nc1c(C(=O)Nc2ccc(S(=O)(=O)N3CCCC3)cc2)sc2nc3ccc(OC(F)(F)F)cc3cc12` the IC50 was “inactive”.
`Cc1cccc(N2CCN(C(=O)c3c(C)nn(Cc4ccccc4Cl)c3C)CC2)c1C` was tested, and the IC50 was > 10 µM (inactive).
With `Cc1ccc(Nc2nc(N)c([N+](=O)[O-])c(N3CCC(C)CC3)n2)cc1C` the IC50 was “inactive”.
For `Cc1cccc(/C=N/Nc2ccc3ccccc3n2)c1`, the IC50 was “inactive”.
With `COc1ccccc1C(=O)NC(=Nc1nc2ccccc2o1)NC(=O)c1ccccc1OC` the IC50 was “inactive”.
In the case of `Cc1cccc(OCC(=O)N/N=C\C=C\c2ccc3c(c2)OCO3)c1C`, the IC50 was > 10 µM (inactive).
For `CCNC(=S)N/N=C/c1cc(Br)cc(Br)c1OC`, the IC50 was > 10 µM (inactive).
`O=C(/C=C/c1ccccc1)Nc1cccc(C(=O)O)c1` was tested, and the IC50 was “inactive”.
With `O=C(Nc1ccc(S(=O)(=O)N2CCOCC2)cc1)c1ccc(CN2CCc3ccccc3C2)cc1` the IC50 was “inactive”.
For `Fc1ccc(Nc2nc(NCc3ccco3)c3ccccc3n2)cc1`, the IC50 was > 10 µM (inactive).
`CC(C)c1ccc(O)c(NC(=S)NC(=O)CCc2ccccc2)c1` was tested, and the IC50 was “inactive”.
With `CCCCCCn1c(CN2CCCC(C)C2)nc2c1c(=O)n(C)c(=O)n2C` (stereo not drawn) the IC50 was > 10 µM (inactive).
Work on `O=C(OCn1ncc(Cl)c(Cl)c1=O)c1ccc(F)cc1` yielded a pIC50 of 5.43.
In the case of `Cc1ccc(/C=N/NC(=O)CCCOc2ccc(Cl)cc2Cl)cc1`, the IC50 was > 10 µM (inactive).
In the case of `C=C1C(=O)O[C@@H]2C[C@@H](C)[C@@H]3C=CC(=O)[C@@]3(C)[C@@H](O)[C@H]12`, the pIC50 was 5.61.
With `O=C(Nc1ccccc1Cl)c1ccccc1Oc1ccc(C(F)(F)F)cc1[N+](=O)[O-]` the IC50 was “inactive”.
With `CCOc1cccc(CN2CCN(c3cccc(C(F)(F)F)c3)CC2)c1O` the IC50 was > 10 µM (inactive).
For `O=S(=O)(NCC(Nc1ccc(Cl)cc1)c1ccccc1)c1ccc(Cl)cc1` (stereo not drawn), the IC50 was > 10 µM (inactive).
With `Cc1cc(Cl)ccc1OCc1n[nH]c(=S)n1C1CCCCC1` the IC50 was “inactive”.
`O=C(Nc1cccc(Cl)c1Cl)c1cc(S(=O)(=O)NCCc2ccccc2)ccc1F` was tested, and the IC50 was “inactive”.
With `O=C(N/N=C/c1ccc(F)cc1)c1c(O)c2ccccc2[nH]c1=O` the IC50 was > 10 µM (inactive).
For `CCCC(=O)OCCNc1cc(Sc2nc3ccccc3[nH]2)c2nonc2c1[N+](=O)[O-]`, the IC50 was “inactive”.
`Cc1ccc(Cn2c(SCC(=O)Nc3cc(C)on3)nc3ccccc3c2=O)cc1` was tested, and the IC50 was > 10 µM (inactive).
`O=[N+]([O-])c1ccc(COc2ccc(-c3[nH]ncc3-c3ccccc3)c(O)c2)cc1` was tested, and the IC50 was > 10 µM (inactive).
`Cc1ccccc1CS(=O)(=O)c1nnc([C@H](CC(C)C)NC(=O)OC(C)(C)C)o1` was tested, and the IC50 was “inactive”.
For `O=C(Nc1ccccc1)C1=C(c2ccccc2)S(=O)(=O)CCS1(=O)=O`, the IC50 was “inactive”.
With `O=C(N/N=C/c1cccc(F)c1)c1c(O)c2ccccc2[nH]c1=O` the IC50 was “inactive”.
With `NC(=S)n1[nH]c(-c2ccc([N+](=O)[O-])cc2)c(N=Nc2ccc(Cl)cc2)c1=O` the IC50 was “inactive”.
With `COc1cc(-c2nc3ccc4ccccc4c3c3c2CCC3)cc(OC)c1O` the IC50 was “inactive”.
With `O=C(CCl)N(c1ccc(Cl)cc1)c1c[nH]c2ccccc12` the IC50 was “inactive”.
`COc1ccc(NC(=O)c2cc(-c3cc(C)cc(C)c3O)n[nH]2)cc1Cl` was tested, and the IC50 was > 10 µM (inactive).
For `CCOC(=O)c1nc(S(C)(=O)=O)ncc1Cl`, the IC50 was “inactive”.
In the case of `CCCCCCn1c(=O)c(C(=O)Nc2cnccn2)c(O)c2ccccc21`, the pIC50 was 5.74.
`CCC(C)c1ccc(O)c(NC(=O)c2cncc(Br)c2)c1` (stereo not drawn) was tested, and the IC50 was “inactive”.
`CCCCCc1c(C)nc(NCc2ccccc2)[nH]c1=O` was tested, and the IC50 was > 10 µM (inactive).
In the case of `Cc1ccc(N=Cc2cc3c(cc2O)OC(N)=C(C#N)C3c2ccccc2)cc1` (stereo not drawn), the IC50 was > 10 µM (inactive).
Compound `Cc1cc(/C=c2/sc3nc4ccccc4n3c2=O)c(C)n1-c1ccccn1` has a pIC50 greater than 6.80.
With `COc1cccc(-c2nnc(NC(=O)c3ccc(S(=O)(=O)N(CC(C)C)CC(C)C)cc3)o2)c1` the IC50 was “inactive”.
For `COC(=O)c1cc(NC(=S)Nc2cc(Cl)cc(Cl)c2)cc(C(=O)OC)c1`, the IC50 was > 10 µM (inactive).
In the case of `O=C(OCn1ncc(Cl)c(Cl)c1=O)c1cccc(C(F)(F)F)c1`, the IC50 was “inactive”.
`CCN(CC)CCn1c(SCC(=O)Nc2ccc(F)cc2)nc2c(sc3ccccc32)c1=O` was tested, and the IC50 was > 10 µM (inactive).
In the case of `O=[N+]([O-])c1ccc(/C=N/n2c(C3CCCCC3)n[nH]c2=S)cc1`, the IC50 was > 10 µM (inactive).
In the case of `CCCOC(=O)c1ccc(Oc2cn[nH]c2-c2ccc(OCC)cc2O)cc1`, the IC50 was “inactive”.
`CCOc1cc(S(=O)(=O)Nc2ccc(CC)cc2)ccc1Cl` was tested, and the IC50 was “inactive”.
`CC[C@@H](C)[C@H](NC(=O)OC(C)(C)C)c1nnc(S(=O)(=O)Cc2cc(C)ccc2C)o1` was tested, and the pIC50 was 5.42.
For `CN1/C(=C/C(=O)c2nc(S(C)(=O)=O)ncc2Cl)C(C)(C)c2ccccc21`, the IC50 was “inactive”.
In the case of `Cc1cc(C2=NNC(=NC3CC3)SC2)c(C)n1-c1ccccc1F`, the IC50 was < 0.16 µM (inactive).
With `Cc1ccc(NC(=O)c2ccc(Nc3c([N+](=O)[O-])cc([N+](=O)[O-])cc3[N+](=O)[O-])cc2)cc1` the IC50 was “inactive”.
For `Oc1ccc(/C=N/Nc2nc(-c3ccc(Cl)cc3)cc(C(F)(F)F)n2)cc1`, the IC50 was > 10 µM (inactive).
In the case of `O=C(CCCOc1ccc(Cl)cc1Cl)N/N=C\C1CCCCC1`, the IC50 was “inactive”.
In the case of `O=C1CC(c2cccc(Cl)c2)CC(O)=C1C=Nc1cccc(Cl)c1` (stereo not drawn), the IC50 was > 10 µM (inactive).
With `O=C(Cc1csc(Nc2nc(=S)[nH]c3ccccc23)n1)NCCCN1CCN(c2ccccc2F)CC1` the IC50 was > 10 µM (inactive).
Compound `Cc1sc(NC(=O)c2cccc([N+](=O)[O-])c2)c(C(N)=O)c1-c1ccc(C(C)(C)C)cc1` has a pIC50 of 5.39.
`O=C(/C=C/c1cccc([N+](=O)[O-])c1)n1cnc2ccccc21` was tested, and the IC50 was “inactive”.
With `Cc1ccccc1NC(=O)/C=C/c1ccc([N+](=O)[O-])s1` the IC50 was “inactive”.
`CCOC(=O)c1c(/N=C/c2c(O)n(-c3cccc(C)c3)c(=O)[nH]c2=O)sc2c1CCCC2` was tested, and the pIC50 was 6.28.
With `O=C(OCn1ncc(Cl)c(Cl)c1=O)c1ccc(C(F)(F)F)cc1` the IC50 was > 10 µM (inactive).
`Cc1cccc(OCc2n(CC(=O)OC3CC(C)CCC3C(C)C)c3ccccc3[n+]2C)c1` (stereo not drawn) was tested, and the IC50 was > 10 µM (inactive).
In the case of `CC1=NNC(=O)/C1=C\c1cn(-c2ccccc2)nc1-c1ccc(F)cc1`, the IC50 was “inactive”.
In the case of `CCCCCCCCCS(=O)(=O)N/N=C/c1cccc([N+](=O)[O-])c1`, the IC50 was “inactive”.
With `C=CCc1cc(C)ccc1OCC(O)CN1CCN(c2ccccc2)CC1` (stereo not drawn) the IC50 was “inactive”.
In the case of `Cc1ccccc1/C=N/Nc1ccnc2cc(Cl)ccc12`, the IC50 was > 10 µM (inactive).
With `CCCNC(=O)c1nnsc1S(=O)(=O)c1ccc(Cl)cc1` the pIC50 was 6.06.
`COC(=O)C(O)(c1ccc(NC(=S)NC(=O)c2ccc(Cl)cc2Cl)c(C)c1)C(F)(F)F` (stereo not drawn) was tested, and the IC50 was > 10 µM (inactive).
`CC(C)Oc1ccc(CNC(=O)CC(c2ccccc2)c2cc(Cl)ccc2O)cc1` (stereo not drawn) was tested, and the IC50 was > 10 µM (inactive).
For `O=C1CC(c2ccccc2)CC(O)=C1C=Nc1cccc(Cl)c1` (stereo not drawn), the IC50 was > 10 µM (inactive).
For `Nc1ccc(SC(F)(F)F)cc1C(=O)c1ccccc1`, the IC50 was “inactive”.
With `CCOc1ccc(C2C=C(c3ccc(C)cc3)Nc3nnnn32)cc1` (stereo not drawn) the IC50 was > 10 µM (inactive).
In the case of `COCCCn1c(N)c(C(=O)NCCC(C)C)c2nc3ccccc3nc21`, the IC50 was > 10 µM (inactive).
In the case of `CCOC(=O)c1cc(-c2ccccc2)nc2c1c(C)nn2-c1ccccn1`, the IC50 was > 10 µM (inactive).
`COc1cccc(NC(=O)CSc2nnc(-c3cc(C)n(-c4ccccc4)c3C)o2)c1` gave a pIC50 of 6.39.
Work on `COc1ccc(OCc2cccc(C(=O)Nn3cc([N+](=O)[O-])cn3)c2)cc1` yielded a pIC50 of 6.48.
`CC(C)CCN(C(=O)Cc1ccc(Cl)c(Cl)c1)c1c(N)n(Cc2ccccc2)c(=O)[nH]c1=O` was tested, and the IC50 was “inactive”.
`Cc1cc(C)cc(NC(=O)/C(C#N)=C/c2cn(CC(=O)NCc3ccco3)c3ccccc23)c1` gave a pIC50 of 5.31.
In the case of `CC(C)Oc1ccc(CNC(=S)N/N=C/c2ccc([N+](=O)[O-])cc2)cc1`, the IC50 was > 10 µM (inactive).
`Cc1ccc(N2C(=O)NC(=O)/C(=C\C=C\c3ccco3)C2=O)cc1C` was tested, and the IC50 was > 10 µM (inactive).
With `O=C(c1ccco1)N1CCN(c2c(-c3ccccc3)c3cc(Cl)ccc3[nH]c2=O)CC1` the IC50 was > 10 µM (inactive).
For `O=C(NC(c1ccccc1)c1c(O)ccc2ccccc12)c1ccccc1Cl` (stereo not drawn), the IC50 was “inactive”.
For `COc1ccc(Cn2c(C)c(C)c(C#N)c2NC(=O)Nc2ccc(Cl)cc2)cc1`, the IC50 was > 10 µM (inactive).
For `Cc1ccc(NP(=O)(Oc2ccccc2F)Oc2ccccc2F)cc1`, the IC50 was “inactive”.
In the case of `NC(=O)CC(NC(=O)Cc1cccc2ccccc12)c1ccc(NCCOc2ccccc2)c([N+](=O)[O-])c1` (stereo not drawn), the IC50 was > 10 µM (inactive).
For `CN(C)CCCn1c(SCC(=O)Nc2nc(-c3cccc(Br)c3)cs2)nc2ccccc2c1=O`, the IC50 was > 10 µM (inactive).
With `COc1cc(OC)nc(-n2ncc(Br)c(Br)c2=O)n1` the pIC50 was 5.70.
`C#CC(=O)N(c1cccc(OC)c1)C(C(=O)NC1CCCC1)c1cccs1` (stereo not drawn) was tested, and the IC50 was “inactive”.
`CCCCCCN=C(CC)c1c(O)n(CCCC)c(=O)[nH]c1=O` was tested, and the IC50 was “inactive”.
